Measured values taken from patent publication US6476030B1, “Pyrazolo-triazine derivatives as ligands for GABA receptors” (Merck Sharp & Dohme Ltd., priority 1998, dated 2002).
Structures can show the parent of a compound that is named as a salt.

melting point [°C] | SMILES
164 | CCn1ncnc1COc1nn2c(-c3ccccc3F)nncc2c1-c1ccccc1F [Example 58, 2-(2-Ethyl-2H-[1,2,4]triazol-3-ylmethoxy)-3,7-bis(2-fluorophenyl)-pyrazolo[1,5-d][1,2,4]triazine]
179 | Cn1ncnc1COc1nn2c(-c3c(F)cccc3F)nncc2c1-c1ccccc1 [Example 10, 7-(2,6-Difluorophenyl)-2-(2-methyl-2H-[1,2,4]triazol-3-ylmethoxy)-3-phenylpyrazolo[1,5-d][1,2,4]triazine]
196 to 200 | Cn1ncnc1COc1nn2c(-c3ccccc3F)nncc2c1-c1cccc(N)c1 (as salt: hemisulfate) [Example 94, 3-(3-Aminophenyl)-7-(2-fluorophenyl)-2-(2-methyl-2H-[1,2,4]triazol-3-ylmethoxy)pyrazolo[1,5-d][1,2,4]triazine]
164 to 165 | Cn1ncnc1COc1nn2c(-c3ccccc3F)nncc2c1-c1cc(F)ccc1F [Example 14, 3-(2,5-Difluorophenyl)-7-(2-fluorophenyl)-2-(2-methyl-2H-[1,2,4]triazol-3-ylmethoxy)Pyrazolo[1,5-d][1,2,4]triazine]
154 | Cc1cnc(COc2nn3c(-c4ccccc4F)nncc3c2-c2ccccc2F)s1 [Example 72, 3,7-bis(2-Fluorophenyl)-2-(5-methylthiazol-2-ylmethoxy)pyrazolo[1,5-d][1,2,4]triazine]
179 | CC(C)n1ncnc1COc1nn2c(-c3ccccc3F)nncc2c1-c1ccccc1F [Example 74, 3,7-bis(2-Fluorophenyl)-2-(2-isopropyl-2H-[1,2,4]triazol-3-ylmethoxy)-pyrazolo[1,5-d][1,2,4]triazine]
185 | Cn1ncnc1COc1nn2c(-c3ccccc3)nncc2c1-c1ccccc1 [Example 12, 3,7-Diphenyl-2-(2-methyl-2H-[1,2,4]triazol-3-ylmethoxy)pyrazolo[1,5-d][1,2,4]triazine]
169 to 170 | Cn1ncnc1COc1nn2c(-c3cccc(F)c3)nncc2c1-c1ccccc1F [Example 51, 3-(2-Fluorophenyl)-7-(3-fluorophenyl)-2-(2-methyl-2H-[1,2,4]triazol-3-ylmethoxy)pyrazolo[1,5-d][1,2,4]triazine]
204 to 206 | Cn1ncnc1COc1nn2c(-c3ccco3)nncc2c1-c1ccccc1F [Example 36, 3-(2-Fluorophenyl)-7-(furan-2-yl)-2-(2-methyl-2H-[1,2,4]triazol-3-ylmethoxy)pyrazolo[1,5-d][1,2,4]triazine]
89 to 91 | CCC(C)(C)c1c(OCc2ncnn2C)nn2c(-c3ccccc3F)nncc12 [Example 34, 3-(1,1-Dimethylpropyl)-7-(2-fluorophenyl)-2-(2-methyl-2H-[1,2,4]triazol-3-ylmethoxy)pyrazolo[1,5-d][1,2,4]triazine]
145 | CCn1ncnc1COc1nn2c(-c3ccc(F)cc3F)nncc2c1C(C)(C)C [Example 57, 7-(2,4-Difluorophenyl)-3-(1,1-dimethylethyl)-2-(2-ethyl-2H-[1,2,4]triazol-3-ylmethoxy)pyrazolo[1,5-d][1,2,4]triazine]
210 | Fc1ccccc1-c1c(OCc2cccnn2)nn2c(-c3ccccc3F)nncc12 [Example 76, 3,7-bis(2-Fluorophenyl)-2-(pyridazin-3-ylmethoxy)pyrazolo[1,5-d][1,2,4]triazine]
146 | Fc1ccccc1-c1c(OCc2cccnc2)nn2c(-c3ccccc3F)nncc12 [Example 63, 3,7-bis(2-Fluorophenyl)-2-(pyridin-3-ylmethoxy)pyrazolo[1,5-d][1,2,4]triazine]
118 | Cn1ncnc1COc1nn2c(-c3ccc(F)cc3F)nncc2c1C(C)(C)C [Example 56, 7-(2,4-Difluorophenyl)-3-(1,1-dimethylethyl)-2-(2-methyl-2H-[1,2,4]triazol-3-ylmethoxy)pyrazolo[1,5-d][1,2,4]triazine]
179 to 180 | Cn1ncnc1COc1nn2c(-c3cnccn3)nncc2c1-c1ccccc1F [Example 31, 3-(2-Fluorophenyl)-2-(2-methyl-2H-[1,2,4]triazol-3-ylmethoxy)-7-(pyrazin-2-yl)pyrazolo[1,5-d][1,2,4]triazine]
218 to 220 | Cn1c(COc2nn3c(-c4ccccc4F)nncc3c2-c2ccccc2F)nc2ccccc21 [Example 81, 3,7-bis(2-Fluorophenyl)-2-(1-methyl-1H-benzimidazol-2-ylmethoxy)pyrazolo[1,5-d][1,2,4]triazine]
196 | Cn1ncnc1COc1nn2c(-c3ccccc3F)nncc2c1-c1c(F)cccc1F [Example 15, 3-(2,6-Difluorophenyl)-7-(2-fluorophenyl)-2-(2-methyl-2H-[1,2,4]triazol-3-ylmethoxy)pyrazolo[1,5-d][1,2,4]triazine]
42 | CCn1ncnc1COc1nn2c(-c3c(F)ccc(F)c3F)nncc2c1C(C)(C)C [Example 29, 3-(1,1-Dimethylethyl)-2-(2-ethyl-2H-[1,2,4]triazol-3-ylmethoxy)-7-(2,3,6-trifluorophenyl)pyrazolo[1,5-d][1,2,4]triazine]

melting point [°C] | SMILES
163 | Cn1ncnc1COc1nn2c(-c3c(F)cccc3F)nncc2c1-c1ccccc1F [Example 49, 7-(2,6-Difluorophenyl)-3-(2-fluorophenyl)-2-(2-methyl-2H-[1,2,4]triazol-3-ylmethoxy)pyrazolo[1,5-d][1,2,4]triazine]
194 to 196 | Cn1ncnc1COc1nn2c(-c3ccccc3F)nncc2c1-c1cccc(C#N)c1 [Example 97, 3-(3-Cyanophenyl)-7-(2-fluorophenyl)-2-(2-methyl-2H-[1,2,4]triazol-3-ylmethoxy)pyrazolo[1,5-d][1,2,4]triazine]
190 to 192 | CCn1ncnc1COc1nn2c(-c3ccccc3F)nncc2c1-c1cccs1 [Example 92, 2-(2-Ethyl-2H-[1,2,4]triazol-3-ylmethoxy)-7-(2-fluorophenyl)-3-(thien-2-yl)pyrazolo[1,5-d][1,2,4]triazine]
186 to 187 | Cn1ncnc1COc1nn2c(-c3ccccc3F)nncc2c1-c1ccccn1 [Example 53, 7-(2-Fluorophenyl)-2-(2-methyl-2H-[1,2,4]triazol-3-ylmethoxy)-3-(pyridin-2-yl)pyrazolo[1,5-d][1,2,4]triazine]
187 to 193 | CCn1ncnc1COc1nn2c(-c3ccccc3F)nncc2c1-c1ccsc1 [Example 93, 2-(2-Ethyl-2H-[1,2,4]triazol-3-ylmethoxy)-7-(2-fluorophenyl)-3-(thien-3-yl)pyrazolo[1,5-d][1,2,4]triazine]
128 | Cn1ncnc1COc1nn2c(-c3ccccc3F)nncc2c1C(C)(C)C [Example 24, 3-(1,1-Dimethylethyl)-7-(2-fluorophenyl)-2-(2-methyl-2H-[1,2,4]triazol-3-ylmethoxy)pyrazolo[1,5-d][1,2,4]triazine]
164 to 166 | Cn1ncnc1COc1nn2c(-c3cccnc3)nncc2c1-c1ccccc1F [Example 45, 3-(2-Fluorophenyl)-2-(2-methyl-2H-[1,2,4]triazol-3-ylmethoxy)-7-(pyridin-3-yl)pyrazolo[1,5-d][1,2,4]triazine]
108 | CCn1ncnc1COc1nn2c(-c3cc(F)ccc3F)nncc2c1C(C)(C)C [Example 22, 7-(2,5-Difluorophenyl)-3-(1,1-dimethylethyl)-2-(2-ethyl-2H-[1,2,4]triazol-3-ylmethoxy)pyrazolo[1,5-d][1,2,4]triazine]
215 to 219 | Cn1ncnc1COc1nn2c(-c3ccccc3F)nncc2c1Br [Example 17, 3-Bromo-7-(2-fluorophenyl)-2-(2-methyl-2H-[1,2,4]triazol-3-ylmethoxy)pyrazolo[1,5-d][1,2,4]triazine]
143 | COc1cccnc1COc1nn2c(-c3ccccc3F)nncc2c1-c1ccccc1F [Example 67, 3,7-bis(2-Fluorophenyl)-2-(3-methoxypyridin-2-ylmethoxy)pyrazolo[1,5-d][1,2,4]triazine]
176 | Cn1ncnc1COc1nn2c(-c3ccccc3F)nncc2c1-c1ccccc1 [Example 1, 7-(2-Fluorophenyl)-2-(2-methyl-2H-[1,2,4]triazol-3-ylmethoxy)-3-phenylpyrazolo[1,5-d][1,2,4]triazine]
208 to 209 | Fc1ccccc1-c1c(OCc2nc3ccccn3n2)nn2c(-c3ccccc3F)nncc12 [Example 82, 3,7-bis(2-Fluorophenyl)-2-([1,2,4]triazolo[1,5-a]pyridin-2-ylmethoxy)pyrazolo[1,5-d][1,2,4]triazine]
209 | Fc1ccccc1-c1c(OCc2cnc3ccccc3n2)nn2c(-c3ccccc3F)nncc12 [Example 79, 3,7-bis(2-Fluorophenyl)-2-(quinoxalin-2-ylmethoxy)pyrazolo[1,5-d][1,2,4]triazine]
192 | Cn1ncnc1COc1nn2c(-c3ccccc3F)nncc2c1-c1ccc(F)cc1 [Example 4, 3-(4-Fluorophenyl)-7-(2-fluorophenyl)-2-(2-methyl-2H-[1,2,4]triazol-3-ylmethoxy)pyrazolo[1,5-d][1,2,4]triazine]
105 | CCn1ncnc1COc1nn2c(-c3ccccc3F)nncc2c1C(C)(C)C [Example 25, 3-(1,1-Dimethylethyl)-2-(2-ethyl-2H-[1,2,4]triazol-3-ylmethoxy)-7-(2-fluorophenyl)pyrazolo[1,5-d][1,2,4]triazine]
190 | CCn1ncnc1COc1nn2c(-c3ccc(F)cc3)nncc2c1C(C)(C)C [Example 38, 3-(1,1-Dimethylethyl)-2-(2-ethyl-2H-[1,2,4]triazol-3-ylmethoxy)-7-(4-fluorophenyl)pyrazolo[1,5-d][1,2,4]triazine]
148 | CCCn1ncnc1COc1nn2c(-c3ccc(F)cc3)nncc2c1-c1ccccc1F [Example 48, 3-(2-Fluorophenyl)-7-(4-fluorophenyl)-2-(2-propyl-2H-[1,2,4]triazol-3-ylmethoxy)pyrazolo[1,5-d][1,2,4]triazine]
179 to 180 | Fc1ccccc1-c1c(OCc2ncnn2CC(F)F)nn2c(-c3ccccc3F)nncc12 [Example 85, 2-[2-(2,2-Difluoroethyl)-2H-[1,2,4]triazol-3-ylmethoxy]-3,7-bis(2-fluorophenyl)pyrazolo[1,5-d][1,2,4]triazine]
